Test results taken from US5863763A (British Technology Group Ltd., priority 1994, dated 1999).
pIC50: −log10 of the molar value. Square brackets hold non-standard residues; d marks the D form. Ends that are not written are not given here. Peptide text beside a SMILES is read from it. Hyp = O=C(O)[C@@H]1C[C@@H](O)CN1

Key:
[1] = assay type: in vitro ADME, Periplaneta americana; settings: for peptide remaining after incubation with haemolymph: 24 h
Experimental: Degradation of the Met-callatostatins induced by the haemolymph was assessed by measuring the difference between the amount of added peptide at the start of the incubation period and the total immunoassayable material present at its conclusion. Since the radioimmunoassay (RIA) is carboxy-terminal specific, any degradation at the carboxy-terminus, as for example by metalloendopeptidases able to cleave the Phe-Gly bond (Lamango et al in Insect Biochem. Mol. Biol. 23, 801-808 (1993)), would render the molecule non-immunoreactive. On the other hand partial amino-terminus degradation would result in peptides able to bind to the anti-Met-callatostatin antibodies present in the RIA solution. The mixture remaining after incubation would, therefore, contain all intact molecules and any degradation products with a carboxy-terminus of sufficient length to cross-react within the RIA. Experiments were carried out in an insect Ringer's solution containing Hepes buffer (Holman et al in Insect Biochem 21 107-112 (1991)) at 24° C. and pH 7.0 over several time periods from 15 minutes to 24 hours. In some experiments EDTA (10 mM final concentration) was added with the purpose of inhibiting metalloendopeptidases. For both C. vomitoria and P. americana 1 μl of a […] peptide solution was added to 20 μl of Ringer's solution and 15 μl pooled haemolymph. For C. vomitoria 15 μl was taken from the pooled haemolymph of 10 vitellogenic females, and for P. americana the same volume was obtained from 3-4 ootheca-carrying females. At the conclusion of the incubation period 5 μl of an 8% solution of trichloroacetic acid was added to stop the degradation process. The mixture was centrifuged for 1 minute, an 40 μl of the supernatant was added to 20 μl of water, 0.1% trifluoroacetic acid (TFA) prior to chromatography. Chromatography was carried out on a Kromasil™ (Technicol) C18 250×4.6 mm, 5 μm, 300 Å column with a gradient of 0-30% CH3 CN, 0.1% TFA at a flow rate of 1 ml/min with a rate of change of 1.0%/min. Fractions that were immunoreactive in the Met-callatostatin RIA were rechromatographed on a Delta Pak™ (Waters) C18 250×2.1 mm, 5 μm, 300 Å column with a gradient of 10-30% CH3 CN, 0.1% TFA at a flow rate of 0.2 ml/min with a rate of change of 0.5%/min. Peaks of Met-callatostatin-immunoreactive material were measured by RIA, and amino acid sequences were determined.

[2] = system: Met-callatostatin antisera; test: Liquid-phase absorption of Met-callatostatin antisera (ICC control); assay type: binding, rabbit; settings: at 50 μM
Text: A variety of tissues including brain, corpora cardiaca-CA-hypocerebral ganglion complex, thoracicoabdominal ganglion, and the entire gut were fixed in aqueous Bouin's fluid, embedded in paraffin, and sectioned at 6 μm (Duve et al in Cell Tissue Res. 251, 399-415 (1988)). The peroxidase-antiperoxidase method of Sternberger (publ. "Immunocytochemistry" 1974)) was used in combination with the three Met-callatostatin antisera, from rabbits D1, D2 and D3, each of which gave essential, the same results. The results presented here were obtained mainly with antiserum from rabbit D1 bleed 5 used at a concentration of 1:2000 for 24 h at 4° C. Other tissues, including the brain, thoracicoabdominal ganglion, and the gut, complete with its neural connections, were fixed in 4% paraformaldehyde for whole-mount studies using the indirect immunofluorescence technique with either UV or confocal laser scanning microscopy. After fixation, tissues were washed in phosphate-buffered saline and permeabilized in methanol in phosphate-buffered saline. The tissues were washed in phosphate-buffered saline containing 0.2% bovine serum albumin and Triton X-100 (PBT buffer). Incubation of tissues with the Met-callatostatin antisera was at 4° C. over 24 h. […]

hindgut of C. vomitoria = test: Inhibition of peristalsis of the hindgut (ileum) of C. vomitoria; design: species or system Calliphora vomitoria; settings: for inhibition of normal peristaltic movements of the ileum: at 1 μm, normal movements 9-10/min
Experimental: Adult female C. vomitoria were fed sugar, water and meat for 7 days prior to studying the effect of synthetic peptides (Affinity Research Products Ltd, Nottingham) on gut motility. The stage of development of the oocytes of each fly was recorded to provide a physiological base line. The gut and reproductive system were transferred to a 100-μl Sylgard chamber (Sylgard 184, Dow Corning) and bathed in a Calliphora Ringer's solution (Duve et al in Regul. Pept. 35 145-159 (1991)). Peristaltic movements of the ileum and the other forms of contraction in the rest of the gut and reproductive musculature were observed under a microscope. The preparation was superfused with several washes of Ringer's solution, after which peristaltic movements of the ileum were counted over a 2-minute period. The bathing fluid was replaced with fresh Ringer's solution containing the test peptide and the counting repeated. This procedure could be carried out many times for a single preparation.
Peptide solutions were made up in Ringer's solution on the day of the experiments, which were carried out at 22° C. Approximately 50 female flies were used.
Each point represents the mean of 5-16 measurements from a number of different vitellogenic female flies (callatostatin is abbreviated to cast in the figure).

[3] = system: juvenile hormone bisepoxide release from the CA of C. vomitoria; test: Radiochemical assay, release of juvenile hormone bisepoxide from isolated CA of C. vomitoria; assay type: cell-based, Calliphora vomitoria; settings: results not shown
Experimental: (§1) Peptides identified from the extracts were synthesized (Affinity Research Products) and tested in radiochemical assays to determine their effects on the synthesis and release of juvenile hormone bisepoxide from the isolated CA of vitellogenic female C. vomitoria. Similar assays were also carried out on the CA of the cockroaches P. americana (4- to 6-day-old virgin females) and B. germanica (6-day-old virgin females). Details of the methods used have been published previously (C. vomitoria in Duve et al in Proc. Nat'l. Acad. Sci. USA 90 2456-2460 (1993), P. americana in Weaver et al in C Comp. Pharmacol. Toxicol. 107, 119-127 (1994), and Weaver, R. C. in J. Insect Physiol. 37, 111-118 (1991), and B. germanica in Piulachs et al in A Comp. Physiol. 102, 477-480 (1992). For C. vomitoria and P. americana the donor methyl group for incorporation into the JH was provided by L-[methyl-^14 C]methionine, 2.04 GBq/mmol (Amersham International plc), added to methionine-free TCC 199 medium to give a final concentration of 260 μM and for B. germanica by L-[methyl-^3 H]methionine, 3.03 TBq/mmol (Amersham) added to TCC 199 medium containing methionine to achieve a concentration of 100 μM and a final specific activity of 7.4 GBq/mmol.

[4] = system: JH release from CA of B. germanica; test: Radiochemical assay, inhibition of JH release from isolated corpora allata of B. germanica; assay type: cell-based, Blattella germanica; settings: results not shown
Experimental: as §1

[5] = system: Juvenile Hormone III release from corpora allata of virgin P. americana; test: Radiochemical assay, inhibition of JH III release from isolated corpora allata of P. americana; assay type: cell-based, Periplaneta americana; settings: 4- to 6-day-old virgin females, three hour incubations, read-out: IC50, inhibition of JH release from isolated CA
Experimental: as §1
For comparison, the activity of Met-callatostatin was also assayed. […]

[6] = pooled haemolymph of P. americana in insect Ringer's solution containing Hepes buffer, pH 7.0; settings: P. americana (3-4 ootheca-carrying females), 24° C., up to 24 hours
[7] = pooled haemolymph of 10 vitellogenic females in insect Ringer's solution containing Hepes buffer; settings: C. vomitoria, 24° C., up to 24 hours
[8] = pooled haemolymph of C. vomitoria in insect Ringer's solution containing Hepes buffer, pH 7.0; settings: C. vomitoria (10 vitellogenic females), 24° C., up to 24 hours

Molecule	degradation by enzymes in the haemolymph of cockroaches [1]	abolition of immunostaining by absorption of antisera [2]	inhibition of normal peristaltic movements of the ileum (hindgut of C. vomitoria)	effect on the release of juvenile hormone bisepoxide from the CA [3]	cleavage product identified after incubation [1]	degradation in haemolymph [1]	peptide remaining after incubation with haemolymph [1]	pIC50 [4]	pIC50 [5]	fragment found [6]	fragment found [7]	fragment found [8]	pIC50 (hindgut of C. vomitoria; monophasic dose-response curve)
CSCC[C@H](NC(=O)CNC(=O)[C@H](Cc1ccccc1)NC(=O)[C@H](CC(=O)O)NC(=O)[C@H](Cc1ccc(O)cc1)NC(=O)[C@@H]1CCCN1C(=O)[C@@H]1C[C@@H](O)CN1C(=O)CN)C(N)=O [[Hyp^2]Met-callatostatin, Gly-Hyp-Pro-Tyr-Asp-Phe-Gly-Met-NH2] (H-G[Hyp]PYDFGM-NH2)	not												
CSCC[C@H](NC(=O)CNC(=O)[C@H](Cc1ccccc1)NC(=O)[C@H](CC(=O)O)NC(=O)[C@H](Cc1ccc(O)cc1)NC(=O)[C@@H]1C[C@@H](O)CN1C(=O)[C@@H]1CCCN1C(=O)CN)C(N)=O [[Hyp^3]Met-callatostatin, Gly-Pro-Hyp-Tyr-Asp-Phe-Gly-Met-NH2] (H-GP[Hyp]YDFGM-NH2)	not	abolished the immunostaining	completely inhibited	neither peptide had any effect	not	more resistant	less than 10%	6.00	10.00				
GPPYDFGM-NH2										Tyr-Asp-Phe-Gly-Met-NH2 (SEQ ID NO:9), 2-hour	oxidised form of the parent compound	oxidised form of the parent compound, 2-hour	
GPPYDFGM-NH2 [Met-callatostatin, Gly-Pro-Pro-Tyr-Asp-Phe-Gly-Met-NH2]	able to degrade	abolished the immunostaining	completely inhibited	neither peptide had any effect	Tyr-Asp-Phe-Gly-Met-NH2	degraded to approximately the same extent as in C. vomitoria	less than 10%	6.00	10.00				7.00
GP[Hyp]YDFGM-NH2											oxidised form of the parent compound	oxidised form of the parent compound, 2-hour	
